“Also recorded” adds a separate entry of the source.
How the values were obtained:
[1] = test system: isolated rat atria and isolated rat ventricles; test: ex vivo rat heart preparations; conditions: up to 10 μM
[2] = target: T1, hKv1.1 (Homo sapiens, UniProt Q09470); test: voltage-clamp of K+ currents in CHO-K1 cells expressing hKv1.1; assay type: cell-based
T1 construct: expressed in transfected cells; host or cells: CHO-K1
Text: As measure of Ifast, peak current was used, whereas, as a measure of Islow, the current value was obtained at the end of the command pulse (see FIG. 1). Values are expressed as mean±S.E.M. For Islow, a dual phase relationship can be observed. […] Kv1.3 channel is the most sensitive channel (around 6-fold more sensitive in comparison to the “next most sensitive one”, the Kv1.2) Kv1.2, Kv1.1 and Kv1.6 show similar, intermediate sensitivities to nitenin. In opposition, Kv1.4 is the less sensitive (˜31 times less sensitive).
Additionally, drug sensitivity to different voltage-activated channels was assessed by studying the drug effect on currents recorded from chinese hamster ovary (CHO) cells stably transfected with different human Kv channel subunits (Kv1.1, Kv1.2, Kv1.3, Kv1.4 and Kv1.6).
The higher sensitivity of nitenin to Islow (rather than Ifast) and the nature of the nitenin sensitive current (see nitenin sensitive current in FIG. 1.b) urged to understand which K^+ channel(s) do underline Islow. By considering which Kv channel subunits are known to be expressed in DRG, and the biophysical nature of the nitenin-sensitive current, nitenin was tested on whole-cell currents recorded from CHO cells expressing hKv1.1, hKv1.2, hKv1.3, hKv1.4 and hKv1.6. […] Current inhibition was measured at the end of the 1000 ms pulse.

[3] = test system: K+ currents of small diameter dorsal-root ganglion neuron; test: voltage dependence of steady state of inactivation of K+ currents in sdDRGn; assay type: cell-based, rat
Text: (§1) One can observe a shift to hyperpolarized values during the nitenin treatment. The relationships were better fit with the sum of two Boltzmann functions, showing that in both conditions there are two components: one more hyperpolarized component (component 1) and one other more depolarized component (component 2).
as §1, with “treatment with the compound of formula VI.” for “nitenin treatment.”
as §1, with “treatment with the compound of formula VII.” for “nitenin treatment.”
as §1, with “treatment with the compound of formula VIII.” for “nitenin treatment.”
For the electrophysiological recordings of the ex vivo material, voltage-clamp recordings were performed on neurons isolated from rat DRGs (and TGs). Recordings were performed from the soma that often contained the proximal fraction of axon, 1 hour after the end of the cell isolation process (includes enzymatic and mechanical treatment).

[4] = test system: Naïve Wistar control rats; test: naive Wistar controls, von Frey filaments; assay type: in vivo, rat; conditions: I.V. injections
Method: […]
(§2) For efficacy studies, nociception was assessed in all animals from all pain models by regular behavioural monitoring, by quantifying the sensitivity to mechanical stimuli with Von Frey filaments, and consequently reflecting hyperalgesia when hypersensitive. […] Intraperitoneal administration was tested in CFA rats (23 days after CFA injection), with 10 times the nitenin quantity administered by I.V. injections. […] Oral administration of nitenin through stomach gavages (endogastric), with 100 times the quantity administered by I.V. injections, was tested in CCI rats (31 days after surgery). […]

[5] = test system: COP rats (CFA injection in the whisker pad of Wistar rats); test: chronic orofacial pain (COP) rat model, von Frey filaments; assay type: in vivo; conditions: I.V. 1 μg/mL of blood
Text: Values refer to the mechanical sensitivity to face stimulation (whiskers region) using calibrated von Frey Filaments, and consequently reflecting hyperalgesia when hypersensitive (black filled markers—ipsilateral, injured face-side; Open markers—contralateral, uninjured face-side). Dotted line refers to the average value of the ipsilateral face prior to the CFA injection. a) Induction of the model showing that 3 days after operation, the mechanical sensitivity of the ipsilateral face-sides increase markedly, whereas the one associated with the contralateral leg maintains relatively unchanged, similar to baseline values. […]
as §2

[6] = test system: anesthetized Wistar rats; test: in vivo ECG recordings of anesthetized Wistar rats; design: species or system rat; conditions: intravenous 60 μg/Kg

T1 sequence (Q09470 whole entry): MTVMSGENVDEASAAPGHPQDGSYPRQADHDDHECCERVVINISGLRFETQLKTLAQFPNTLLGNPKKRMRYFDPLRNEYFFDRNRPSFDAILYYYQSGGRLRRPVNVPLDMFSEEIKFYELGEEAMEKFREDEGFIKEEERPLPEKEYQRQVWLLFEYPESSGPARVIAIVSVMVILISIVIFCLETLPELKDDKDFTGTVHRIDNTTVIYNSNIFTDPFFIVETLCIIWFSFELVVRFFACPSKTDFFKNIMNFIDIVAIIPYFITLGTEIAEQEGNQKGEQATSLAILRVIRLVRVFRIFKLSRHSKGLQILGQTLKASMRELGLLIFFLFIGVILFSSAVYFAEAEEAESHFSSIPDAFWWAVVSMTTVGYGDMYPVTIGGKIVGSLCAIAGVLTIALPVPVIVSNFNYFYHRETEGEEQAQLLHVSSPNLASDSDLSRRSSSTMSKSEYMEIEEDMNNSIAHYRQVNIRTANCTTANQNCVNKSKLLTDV

With `C/C(=C\C1C/C(=C/CCc2ccoc2)C(=O)O1)CCCc1ccoc1` (centres unmarked) [nitenin] the sinus heart rate ([1]; ex vivo) was “does not change”, the atrial inotropy ([1]; isolated rat atria) was “does not change” and the “right ventricular (RV) inotropy” value ([1]; isolated rat ventricles) was “does not change”. For the same compound, the “lower sensitivity of hKv1.1 relative to Kv1.3” value [2] was roughly 6 ×, the “effect on I-V curves of the voltage dependence of inactivation” value [3] was “shifts to more hyperpolarised potentials” and the “Vh2 (voltage of half maximum current, component 2) of steady state inactivation” value ([3]; nitenin 0.1 μg/ml, 0.29 μM, neuron from injured side of CCI rat 28 days after surgery, control −26.3) was −47.0 mV. For the same compound, the “Vh1 (voltage of half maximum current, component 1) of steady state inactivation” value ([3]; nitenin 0.1 μg/ml, 0.29 μM, neuron from injured side of CCI rat 28 days after surgery, control −73.3) was −95.3 mV, the “sensitivity scores, both paws” value [4] was “never any change in sensitivity scores” and the “mechanical sensitivity at the whisker pad region (von Frey)” value [5] was “reaching values not different to those obtained during baseline; also recorded: marked reduction of mechanical sensitivity”. The “arrhythmia or pro-arrhythmic phenomena (ECG)” value [6] was “neither induced arrhythmia or any pro-arrhythmic phenomena” and the “sinus rhythm and heart rate (ECG)” value [6] was “did not change”.

— US12336977B2, “Nitenin analogue compounds and their use in the treatment of chronic and acute pain” (SEA4US-BIOTECNOLOGIA E RECURSOS MARINHOS, LDA., priority 2019, dated 2025)
